# Patent US20230405151A1, “USE OF IRAK4 MODULATORS FOR GENE THERAPY” (Genzyme Corporation, priority 2022, published 2023)
# How the values were obtained:
# [1] = target: T1, IRAK4 protein (Homo sapiens, UniProt Q9NWZ3); experiment: AlphaLISA assay of IRAK4 protein levels in cell lysates; format: cell-based; details: 16 nM, 80 nM, 400 nM and 2000 nM; AAV.SAN024 MOI 1e5 24 hrs
# T1 construct: endogenous in cells; host or cells: primary human monocyte-derived dendritic cells from PBMC donors
# T1 sequence (Q9NWZ3 1-460): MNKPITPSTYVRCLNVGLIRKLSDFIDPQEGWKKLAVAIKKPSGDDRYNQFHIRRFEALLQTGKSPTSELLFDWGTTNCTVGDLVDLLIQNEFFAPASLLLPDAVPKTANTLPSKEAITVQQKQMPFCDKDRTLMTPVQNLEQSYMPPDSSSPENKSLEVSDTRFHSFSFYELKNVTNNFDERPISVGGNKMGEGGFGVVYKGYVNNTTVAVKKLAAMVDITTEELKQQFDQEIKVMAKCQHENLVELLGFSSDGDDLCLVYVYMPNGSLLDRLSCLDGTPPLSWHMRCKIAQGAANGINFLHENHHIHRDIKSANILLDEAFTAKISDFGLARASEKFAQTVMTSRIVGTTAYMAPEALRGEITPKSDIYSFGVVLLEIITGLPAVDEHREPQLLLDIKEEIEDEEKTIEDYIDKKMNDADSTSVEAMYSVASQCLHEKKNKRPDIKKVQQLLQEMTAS
# Procedure: AlphaLISA assay. This assay was performed to measure the levels of IRAK4 protein in the cells. The protocol was followed as per manufacturer's recommendation Perkin Elmer (Catalog #AL3117C). Briefly, cells were lysed and 5 μL of lysates were added to Anti-IRAK4 Acceptor Beads and incubated for 30 min at 23° C., then Biotinylated Anti-IRAK4 Antibody was added and incubated for 60 min at 23° C. Finally, SA-donor beads are added and 30 min later plates are read using EnVision-Alpha Reader (615 nm) https://resources.perkinelmer.com/lab-solutions/resources/docs/MAN_AlphaLISA_IRAK4_AL3117.pdf?_gl=1*7jzf5d*_ga*MzQ4MTQ1NzA3LjE2NDY2NzY5MjI.*_ga_W34ZJ1Z1Q1*MTY3NzE5MjAyOS4zLjEuMTY3NzE5MjA2Mi4yNy4wLjA.&_ga=2.178521252.1409175695.1677192029-348145707.1646676922. The same protocol was used to measure phosphorylation levels of NFkB using AlphaLISA SureFire Ultra p-NFκB (Ser536) Assay Kit—High Volume Catalog #ALSU-PNFKB-A-HV.
# To determine the activity of PROTAC degrader, human monocytic dendritic cells were treated with different doses of drugs as indicated (16 nM, 80 nM, 400 nM and 2000 nM) and the same cells were infected with AAV.SAN024 at MOI of 1e5 for 24 hrs. Cell lysates were analysed for IRAK4 degradation. No significant difference was observed between the control (untretaed/uninfected) cells as compared to the treated and AAV. SAN024 infected cells but the AAV.
# [2] = system: phosphorylation of IRAK4 kinase target protein NFkB; experiment: AlphaLISA SureFire Ultra p-NFκB (Ser536) assay after LPS; format: cell-based, human; details: doses 16 nM, 80 nM, 400 nM and 2000 nM; LPS 300 ng/ml
# Procedure: IRAK4 targeting drugs and AAV Treatments. Dendritic cells were plated in 96 well plates with 200,000 cells per well. Each treatment was performed in triplicates. Cells were treated with zimlovisertib IRAK4 inhibitor (Synonyms: PF-06650833) Cat. No.: HY-19836 (MedChemExpress) and PROTAC IRAK4 degrader-1 Cat. No.: HY-129966 (MedChemExpress) at 16 nm, 80 nm, 400 nm and 2000 nm for 18 hrs at 37° C., 5% CO2 in an incubator. After pre-treatment of 18 hrs with the drugs, AAV vectors at 1e5 MOI were used. The cells were incubated at 37° C., 5% CO2 in an incubator for 24 hours. After 24 hours, plates were centrifuged and media supernatant was collected. The clarified media was analyzed by Meso Scale Discovery MSD (world wide web mesoscale.com/products/v-plex-proinflammatory-panel-1-human-kit-k15049d/) performed by DC3 therapeutics https://www.dc3therapeutics.com/services. The experiment outline of PBMC isolation, monocyte purification and dendritic cell differentiation is illustrated in FIG. 1. […]
# AlphaLISA assay. […] Finally, SA-donor beads are added and 30 min later plates are read using EnVision-Alpha Reader (615 nm) https://resources.perkinelmer.com/lab-solutions/resources/docs/MAN_AlphaLISA_IRAK4_AL3117.pdf?_gl=1*7jzf5d*_ga*MzQ4MTQ1NzA3LjE2NDY2NzY5MjI.*_ga_W34ZJ1Z1Q1*MTY3NzE5MjAyOS4zLjEuMTY3NzE5MjA2Mi4yNy4wLjA.&_ga=2.178521252.1409175695.1677192029-348145707.1646676922. […]
SMILES,IRAK4 levels (IRAK4 degradation) in cell lysates [1],Phosphorylation of NFkB induced by LPS [2]
O=C1CCC(N2C(=O)c3cccc(NCc4cn(CCCNC(=O)c5ccc(-n6cc(NC(=O)c7coc(-c8ccnc(NCC9CC9)c8)n7)c(C(F)(F)F)n6)cc5)cn4)c3C2=O)C(=O)N1 (centres unmarked) [PROTAC IRAK4 degrader-1],reduction of IRAK4 levels at all doses,–
"CC[C@@H]1[C@H](F)C(=O)N[C@@H]1COc1nccc2cc(C(N)=O)c(OC)cc12 [zimlovisertib, 1-[[(2S,3S,4S)-3-Ethyl-4-fluoro-5-oxo-2-pyrrolidinyl]methoxy]-7-methoxy-6-isoquinolinecarboxamide]",–,blocks phosphorylation of NFkB at 400 nM and 2000 nM
